Reference: patent US20180369244A1, “BTK Inhibitors to Treat Solid Tumors Through Modulation of the Tumor Microenvironment” (Acerta Pharma B.V., priority 2014, published 2018)

Experiments:
CD8+ T cells [1] = experiment: Cytotoxic T cell (CTL) assay; type: cell-based; details: 500 nM
Procedure: CD8^+ T cells have at least two primary effector functions: (1) produce large amounts of IFN-γ (which activates macrophages), and (2) cytolytic activity. […] The targets were B lymphoblasts from lipopolysaccharide (LPS) treated cultures. The assay was performed by incubating different ratios of effectors:targets for 4 hours.

NK cells [2] = experiment: Whole blood NK cell degranulation/ADCC assay, MEC-1 cells opsonised with obinutuzumab; type: cell-based, human; details: 1 h pretreatment, obinutuzumab 1 μg/mL, 4 h
Procedure: Degranulation in whole blood was performed as follows. […] Exponentially growing cells were used. […] A white blood cell (WBC) count of whole blood was performed. […] 170 μL aliquots of unmanipulated whole blood were incubated with 10 μL BTK inhibitors or X-VIVO 15 medium for one hour into a plate. […] The samples were placed in a 5% CO2 incubator for 4 hours at 37° C.
After 4 hours, the samples were mixed gently and 50 μL aliquots were removed from each well and placed in fluorescence-activated cell sorting (FACS) test tubes. A 20 μL aliquot of anti-CD56-APC antibody and anti-CD107a-PE antibody was added. The samples were incubated for 20 minutes at room temperature in the dark. An aliquot of 2 mL of FACS lysing solution (BD Biosceinces) was added. The samples were again incubated for 5 minutes, and then centrifuged at 2000 rpm for 5 minutes. Supernatant was discarded and the cell pellet was resuspended in 500 μL of PBS. The samples were analyzed on the flow cytometer for CD107a^+ NK cells (CD56+).

[3] = tested on: BCR activation markers CD69 and CD86; experiment: In vivo potency, CD69 and CD86 expression after IgM stimulation; parameters: species or system mice; details: oral gavage, 3 h post-dose
Excerpt: CD86 and CD69 are cell surface proteins that are BCR activation markers. […] BCR was stimulated with IgM and the expression of activation marker CD69 and CD86 are monitored by flow cytometry and to determine EC50 values.

NK cells [4] = experiment: Antibody-dependent NK cell degranulation (CD107a flow cytometry); type: cell-based, human
Excerpt: Cell culture conditions were as follows. […] The HER18 cells were maintained in DEM supplemented with fetal bovine serum, penicillin-streptomycin and. Prior to assay, HER18 cells were harvested using trypsin-EDTA, washed with phosphate-buffered saline (PBS) containing 5% serum and viable cells were counted. […] Cell preparations were washed and then subject to positive selection of CD5+CD19^+ CLL cells using magnetic beads (MACS, Miltenyi Biotech). Cell preparations were used fresh after selection. […] Removal of non NK cells was performed using negative selection by MACS separation. Freshly isolated NK cells were washed three times, enumerated, and then used immediately for ADCC assays.
Lytic granule release was determined as follows. […] Degranulation was evaluated via by flow cytometery by externalization of CD107a, a protein normally present on the inner leaflet of lytic granules, and gating on NK cells (CD3-CD16^+ lymphocytes). The percentage of CD107a positive NK cells was quantified by comparison with a negative control (isotype control, unstained cells/FMO). Control cultures (NK cells cultured without target cells, or NK, target cell co-cultures in the absence of appropriate monoclonal antibody) were also evaluated; all experiments were performed in triplicate.

[5] = tested on: orthotopic pancreatic cancer (KPC cell line); experiment: Orthotopic pancreatic cancer model; type: in vivo, C57BL/6 mice; details: 15 mg/kg oral
Procedure: Cell line derived from KrasGl2D;Trp53R172H;Pdx1-Cre (KPC) mice were orthotopically implanted into the head of the pancreas after 35 passages. Based on the mice background from where the cell lines were generated, 1×10^6 cells were injected in C57BL/6 mice. Throughout the experiment, animals were provided with food and water ad libitum and subjected to a 12-h dark/light cycle. Animal studies were performed in accordance with the U.S. Public Health Service “Guidelines for the Care and Use of Laboratory Animals” (IACUC). After euthanization, pancreatic tumors were dissected out, weighed and single cell suspensions were prepared for flow cytometry analysis.

BTK = biological target: T1, BTK (Mus musculus, UniProt P35991); experiment: Molecular probe assay, BTK occupancy in MDSCs of tumor bearing PDA mice; type: in vivo; details: 15 mg/kg BID, Day 8, 4 hours post dose
T1 construct: endogenous in cells; host or cells: granulocytic and monocytic MDSCs from tumor-bearing PDA mice
Excerpt: A molecular probe assay was used to calculate the percent irreversible occupancy of total BTK.

[6] = Glutathione binding and depletion in vitro; type: in vitro ADME
Excerpt: (§1) No unique human metabolite was identified. Preliminary evaluations of metabolism in the plasma, bile, and urine of rats, dogs, and monkeys indicated metabolic processes of oxidation, glutathione binding, and hydrolysis.

CD8+ T cells [7] = experiment: CD8+ T cell viability; type: cell-based; details: 4 days culture
Procedure: Total T cells were plated on anti-TCR and anti-CD28 coated wells in the presence of both BTK inhibitors. Neutral culture conditions were used that will not polarize T cells to a helper lineage. The cells are grown for 4 days and are then stained with anti-CD4, anti-CD8 and LIVE/DEAD reagent to determine if the drugs have selective effects on either the CD4^+ or CD8^+ cells. Statistical significance was calculated using the Mann Whitney T-test. […]

B cell receptor = experiment: Whole blood B cell receptor signalling, CD69 on CD19+ B cells; type: cell-based; details: 2 h incubation, anti-human IgD 18 h
Procedure: Blood from four healthy donors was incubated for 2 hours with the compounds shown over a concentration range, and then stimulated with anti-human IgD [10 μg/mL] for 18 hours. The mean fluorescent intensity (MFI) of CD69 (and CD86, data not shown) on gated CD19+ B cells was measured by flow cytometry. MFI values were normalized so that 100% represents CD69 level in stimulated cells without inhibitor, while 0% represents the unstimulated/no drug condition. […]

CYP3A4 = CYP3A4 (Homo sapiens, UniProt P08684); experiment: Loss of parent drug as catalyzed by CYPs; type: in vitro ADME
Excerpt: as §1

[8] = In vitro metabolism in hepatocytes with 14C-labeled Formula (II); type: in vitro ADME, mouse, rat, dog, rabbit, monkey, and human
Excerpt: as §1

Raji cells = experiment: Rituximab ADCC chromium release assay; type: cell-based, human; details: 1 μM
Excerpt: Cell culture conditions were as follows. […] The HER18 cells were maintained in DEM supplemented with fetal bovine serum, penicillin-streptomycin and. Prior to assay, HER18 cells were harvested using trypsin-EDTA, washed with phosphate-buffered saline (PBS) containing 5% serum and viable cells were counted. For culture of primary target cells, peripheral blood from CLL patients was subject to density centrifugation to obtain peripheral blood mononuclear cells (PBMC). Cell preparations were washed and then subject to positive selection of CD5+CD19^+ CLL cells using magnetic beads (MACS, Miltenyi Biotech). Cell preparations were used fresh after selection. NK cells from CLL patients and healthy volunteers were enriched from peripheral blood collected in sodium citrate anti-coagulant tubes and then subject to density centrifugation. Removal of non NK cells was performed using negative selection by MACS separation. Freshly isolated NK cells were washed three times, enumerated, and then used immediately for ADCC assays.
ADCC assays were performed as follows. Briefly, target cells (Raji or primary CLL) were labeled by incubation at 37° C. with 100 μCi ^51Cr for 4 hours prior to co-culture with NK cells. Cells were washed, enumerated, and then added in triplicate to prepared 96-well plates containing treated NK cells at an effector:target (E:T) ratio of 25:1. […] The effect of NK cell natural cytotoxicity was assessed in wells containing no rituximab. Cultures were incubated at 37° C. for 4 hours, and then centrifuged. Supernatants were harvested and ^51Cr release was measured by liquid scintillation counting. All experiments were performed in triplicate.

[9] = tested on: pancreatic cancer in KPC mice; experiment: KPC pancreatic cancer model (spontaneous tumors); type: in vivo; details: 15 mg/kg BID oral
Procedure: The KPC mouse model recapitulates many of the molecular, histopathologic, and clinical features of human disease (Westphalen and Olive, Cancer J. 2012, 18, 502-510). Combination therapy with gemcitabine was also evaluated in this model. Mice were enrolled after identification of spontaneously appearing tumors in the pancreas that were >100 mm^3 (as assessed by high-resolution ultrasonography).

EGFR = experiment: EGF-induced EGFR phosphorylation in A431 cells (phosphoflow); type: cell-based, human
Procedure: Phosphoflow cytometry was performed with p-EGFR (Y1069). MFI values were normalized so that 100% represents the p-EGFR level in stimulated cells without inhibitor, while 0% represents the unstimulated/no drug condition.

T1 sequence (P35991 whole entry): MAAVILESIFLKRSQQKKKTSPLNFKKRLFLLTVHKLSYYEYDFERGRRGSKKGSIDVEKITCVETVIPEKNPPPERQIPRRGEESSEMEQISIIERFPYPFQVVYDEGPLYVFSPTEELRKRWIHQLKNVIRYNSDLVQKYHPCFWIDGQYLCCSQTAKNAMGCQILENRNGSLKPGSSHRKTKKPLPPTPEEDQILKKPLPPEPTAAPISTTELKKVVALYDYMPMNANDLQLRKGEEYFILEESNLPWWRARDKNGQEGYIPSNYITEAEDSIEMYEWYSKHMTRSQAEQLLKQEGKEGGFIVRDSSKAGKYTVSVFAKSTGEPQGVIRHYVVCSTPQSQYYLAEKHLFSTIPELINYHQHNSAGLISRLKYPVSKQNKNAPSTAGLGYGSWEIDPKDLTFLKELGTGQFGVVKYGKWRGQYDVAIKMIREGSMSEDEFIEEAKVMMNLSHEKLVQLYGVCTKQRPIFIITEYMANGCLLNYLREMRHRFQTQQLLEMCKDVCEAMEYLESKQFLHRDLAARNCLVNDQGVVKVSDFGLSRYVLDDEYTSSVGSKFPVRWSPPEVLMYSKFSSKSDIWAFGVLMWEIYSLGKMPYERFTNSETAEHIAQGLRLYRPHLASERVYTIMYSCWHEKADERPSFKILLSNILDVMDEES
Sequence of CYP3A4 (P08684 whole entry): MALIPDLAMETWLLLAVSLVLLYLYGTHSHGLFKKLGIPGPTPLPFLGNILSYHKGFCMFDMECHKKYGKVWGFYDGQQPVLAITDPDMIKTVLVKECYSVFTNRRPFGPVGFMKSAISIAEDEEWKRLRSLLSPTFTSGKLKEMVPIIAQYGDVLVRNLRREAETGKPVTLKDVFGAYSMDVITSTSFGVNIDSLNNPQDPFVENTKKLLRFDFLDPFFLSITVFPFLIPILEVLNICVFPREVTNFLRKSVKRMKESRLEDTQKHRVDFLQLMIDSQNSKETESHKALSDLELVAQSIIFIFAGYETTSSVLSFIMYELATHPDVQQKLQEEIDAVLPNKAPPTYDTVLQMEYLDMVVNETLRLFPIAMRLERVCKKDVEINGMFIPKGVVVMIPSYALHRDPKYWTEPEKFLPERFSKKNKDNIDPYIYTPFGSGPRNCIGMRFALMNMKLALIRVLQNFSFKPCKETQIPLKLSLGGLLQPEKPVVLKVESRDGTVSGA

CC#CC(=O)N1CCC[C@H]1c1nc(-c2ccc(C(=O)Nc3ccccn3)cc2)c2c(N)nccn12 [Formula (II), (S)-4-(8-amino-3-(1-(but-2-ynoyl)pyrrolidin-2-yl)imidazo[1,5-a]pyrazin-1-yl)-N-(pyridin-2-yl)benzamide]
CD8+ T cell function as % cytotoxicity (CD8+ T cells [1]): no effect on CD8^+ T cell function | reduction of obinutuzumab-stimulated NK cell degranulation (NK cells [2]): minimal effect | in vivo potency, inhibition of activation markers [3]: more potent at inhibiting expression of activation makers than ibrutinib | inhibition of trastuzumab-stimulated NK cell degranulation (NK cells [4]; 1 μM, HER18 target cells): no inhibitory effect | reduction of rituximab-stimulated NK cell degranulation (NK cells [4]; DHL-4 target cells): < 2% | immunosuppressive tumor associated myeloid cells and Tregs ([5]; pancreatic tumor-bearing mice): reduce immunosuppressive tumor associated myeloid cells and Tregs | tumor volume ([5]; vs vehicle): statistically significant reductions in tumor volume | irreversible BTK occupancy in granulocytic and monocytic MDSC (BTK): Complete BTK occupancy | glutathione binding and depletion [6]: binds to glutathione but does not deplete glutathione | CD8+ T cell viability (CD8+ T cells [7]): not observed | EC50 (B cell receptor): 8.2 nM | CYP metabolism (CYP3A4): metabolized by CYP3A4 | metabolites in hepatocytes [8]: two mono-oxidized metabolites and a glutathione conjugate | rituximab ADCC, NK cell activity (Raji cells; FIG. 31): not inhibited | antibody-dependent lysis of rituximab-coated Raji cells (Raji cells; healthy donor NK cells): not inhibited | CD8+ cells in tumor tissues [9]: significant increase | immunosuppressive TAMs, MDSCs and Tregs in tumor tissues [9]: significantly reduced | pancreatic cancer growth and animal survival [9]: substantially slowed pancreatic cancer growth and increased animal survival | survival at day 14 [9]: 6/6 | survival at day 28 [9]: 5/6 | average tumor volume at day 28 ([9]; predose average 165 mm^3): 272 mm^3 | inhibition of in vitro EGFR phosphorylation (EGFR; 10 μM): no inhibition | inhibition at 10 µM (EGFR; Homo sapiens, A-431, read-out: EGF-induced p-EGFR inhibition): 7%
